ChEMBL document CHEMBL5550178, “Synthesis and anticancer properties of novel dolastatin 10 analogs featuring five-membered heterocyclic rings with a linkable group at the C-terminus” (Bioorg Med Chem, 2024)
Non-standard residues stand in square brackets, D forms with d. Residues, ends and D or L forms follow the SMILES beside them. Dolaproine = CO[C@@H]([C@@H]1CCCN1)[C@@H](C)C(=O)O; Dil = CC[C@H](C)[C@H](NC)[C@@H](CC(=O)O)OC; NMeV = CN[C@H](C(=O)O)C(C)C

Experiments:
PC-3 [1] = assay: Induction of cell cycle arrest in human PC-3 cells assessed as accumulation of cells at G2/M phase at 1 nM measured after 6 days by PI staining based flow cytometry analysis (reference value: 9.96%); assay type: functional; conditions: time 6 day
PC-3 [2] = assay: Induction of cell cycle arrest in human PC-3 cells assessed as accumulation of cells at G2/M phase at 1 nM measured after 4 days by PI staining based flow cytometry analysis (reference value: 10.7%); assay type: functional; conditions: time 4 day
PC-3 [3] = assay: Induction of cell cycle arrest in human PC-3 cells assessed as accumulation of cells at G1/G0 phase at 1 nM measured after 6 days by PI staining based flow cytometry analysis (reference value: 79.8%); assay type: functional; conditions: time 6 day
PC-3 [4] = assay: Induction of cell cycle arrest in human PC-3 cells assessed as accumulation of cells at S phase at 1000 nM measured after 4 days by PI staining based flow cytometry analysis (reference value: 17.9%); assay type: functional; conditions: time 4 day
PC-3 [5] = assay: Induction of cell cycle arrest in human PC-3 cells assessed as accumulation of cells at S phase at 50 nM measured after 4 days by PI staining based flow cytometry analysis (reference value: 17.9%); assay type: functional; conditions: time 4 day
PC-3 [6] = assay: Induction of cell cycle arrest in human PC-3 cells assessed as accumulation of cells at G2/M phase at 1000 nM measured after 4 days by PI staining based flow cytometry analysis (reference value: 10.7%); assay type: functional; conditions: time 4 day
PC-3 [7] = assay: Induction of cell cycle arrest in human PC-3 cells assessed as accumulation of cells at G1/G0 phase at 1000 nM measured after 8 days by PI staining based flow cytometry analysis (reference value: 73.2%); assay type: functional; conditions: time 8 day
PC-3 [8] = assay: Induction of cell cycle arrest in human PC-3 cells assessed as accumulation of cells at S phase at 1 nM measured after 6 days by PI staining based flow cytometry analysis (reference value: 8.60%); assay type: functional; conditions: time 6 day
PC-3 [9] = assay: Induction of cell cycle arrest in human PC-3 cells assessed as accumulation of cells at G1/G0 phase at 1 nM measured after 8 days by PI staining based flow cytometry analysis (reference value: 73.2%); assay type: functional; conditions: time 8 day
PC-3 [10] = assay: Induction of cell cycle arrest in human PC-3 cells assessed as accumulation of cells at S phase at 50 nM measured after 6 days by PI staining based flow cytometry analysis (reference value: 8.60%); assay type: functional; conditions: time 6 day
PC-3 [11] = assay: Induction of cell cycle arrest in human PC-3 cells assessed as accumulation of cells at G2/M phase at 50 nM measured after 8 days by PI staining based flow cytometry analysis (reference value: 13.9%); assay type: functional; conditions: time 8 day
PC-3 [12] = assay: Induction of cell cycle arrest in human PC-3 cells assessed as accumulation of cells at G1/G0 phase at 50 nM measured after 8 days by PI staining based flow cytometry analysis (reference value: 73.2%); assay type: functional; conditions: time 8 day
PC-3 [13] = assay: Induction of cell cycle arrest in human PC-3 cells assessed as accumulation of cells at S phase at 1 nM measured after 8 days by PI staining based flow cytometry analysis (reference value: 12.9%); assay type: functional; conditions: time 8 day
PC-3 [14] = assay: Induction of cell cycle arrest in human PC-3 cells assessed as accumulation of cells at G2/M phase at 1 nM measured after 8 days by PI staining based flow cytometry analysis (reference value: 13.9%); assay type: functional; conditions: time 8 day
PC-3 [15] = assay: Induction of cell cycle arrest in human PC-3 cells assessed as accumulation of cells at G2/M phase at 1000 nM measured after 8 days by PI staining based flow cytometry analysis (reference value: 13.9%); assay type: functional; conditions: time 8 day
PC-3 [16] = assay: Induction of cell cycle arrest in human PC-3 cells assessed as accumulation of cells at S phase at 1 nM measured after 4 days by PI staining based flow cytometry analysis (reference value: 17.9%); assay type: functional; conditions: time 4 day
PC-3 [17] = assay: Induction of cell cycle arrest in human PC-3 cells assessed as accumulation of cells at G2/M phase at 50 nM measured after 6 days by PI staining based flow cytometry analysis (reference value: 9.96%); assay type: functional; conditions: time 6 day
PC-3 [18] = assay: Induction of cell cycle arrest in human PC-3 cells assessed as accumulation of cells at G2/M phase at 1000 nM measured after 6 days by PI staining based flow cytometry analysis (reference value: 9.96%); assay type: functional; conditions: time 6 day
PC-3 [19] = assay: Induction of cell cycle arrest in human PC-3 cells assessed as accumulation of cells at G2/M phase at 50 nM measured after 4 days by PI staining based flow cytometry analysis (reference value: 10.7%); assay type: functional; conditions: time 4 day
PC-3 [20] = assay: Induction of cell cycle arrest in human PC-3 cells assessed as accumulation of cells at G1/G0 phase at 50 nM measured after 6 days by PI staining based flow cytometry analysis (reference value: 79.8%); assay type: functional; conditions: time 6 day
PC-3 [21] = assay: Induction of cell cycle arrest in human PC-3 cells assessed as accumulation of cells at G1/G0 phase at 1000 nM measured after 4 days by PI staining based flow cytometry analysis (reference value: 67.6%); assay type: functional; conditions: time 4 day
PC-3 [22] = assay: Induction of cell cycle arrest in human PC-3 cells assessed as accumulation of cells at S phase at 1000 nM measured after 6 days by PI staining based flow cytometry analysis (reference value: 8.60%); assay type: functional; conditions: time 6 day
PC-3 [23] = assay: Induction of cell cycle arrest in human PC-3 cells assessed as accumulation of cells at G1/G0 phase at 1 nM measured after 4 days by PI staining based flow cytometry analysis (reference value: 67.6%); assay type: functional; conditions: time 4 day
PC-3 [24] = assay: Induction of cell cycle arrest in human PC-3 cells assessed as accumulation of cells at G1/G0 phase at 50 nM measured after 4 days by PI staining based flow cytometry analysis (reference value: 67.6%); assay type: functional; conditions: time 4 day
PC-3 [25] = assay: Induction of cell cycle arrest in human PC-3 cells assessed as accumulation of cells at S phase at 1000 nM measured after 8 days by PI staining based flow cytometry analysis (reference value: 12.9%); assay type: functional; conditions: time 8 day
PC-3 [26] = assay: Induction of cell cycle arrest in human PC-3 cells assessed as accumulation of cells at S phase at 50 nM measured after 8 days by PI staining based flow cytometry analysis (reference value: 12.9%); assay type: functional; conditions: time 8 day
PC-3 [27] = assay: Induction of cell cycle arrest in human PC-3 cells assessed as accumulation of cells at G1/G0 phase at 1000 nM measured after 6 days by PI staining based flow cytometry analysis (reference value: 79.8%); assay type: functional; conditions: time 6 day
[28] = Drug uptake in human PC-3 cells assessed as increase in fluorescence intensity at upto 1000 nM by Hoechst nuclear dye based fluorescent microscopic analysis; assay type: ADME, cell-based; conditions: pc-3, 1 µM

Q: Which results are given for `CC[C@H](C)[C@@H]([C@@H](CC(=O)N1CCC[C@H]1[C@H](OC)[C@@H](C)C(=O)N[C@@H](Cc1ccccc1)C(=O)O)OC)N(C)C(=O)[C@@H](NC(=O)[C@@H](NC)C(C)C)C(C)C` (H-[NMeV]V[Dil][Dolaproine]F-OH)?
A: Activity (PC-3 [1]): 10.6%; Activity (PC-3 [2]): 7.89%; Activity (PC-3 [3]): 75.5%; Activity (PC-3 [4]): 47.6%; Activity (PC-3 [5]): 30.1%; Activity (PC-3 [6]): 3.87%; Activity (PC-3 [7]): 27.5%; Activity (PC-3 [8]): 11.8%; Activity (PC-3 [9]): 65.8%; Activity (PC-3 [10]): 20.2%; Activity (PC-3 [11]): 18.4%; Activity (PC-3 [12]): 50.8%; Activity (PC-3 [13]): 19%; Activity (PC-3 [14]): 17.2%; Activity (PC-3 [15]): 12.6%; Activity (PC-3 [16]): 20.8%; Activity (PC-3 [17]): 5.39%; Activity (PC-3 [18]): 3.87%; Activity (PC-3 [19]): 8.23%; Activity (PC-3 [20]): 70.6%; Activity (PC-3 [21]): 44.7%; Activity (PC-3 [22]): 47.6%; Activity (PC-3 [23]): 68.9%; Activity (PC-3 [24]): 58.5%; Activity (PC-3 [25]): 60.7%; Activity (PC-3 [26]): 32%; Activity (PC-3 [27]): 44.7%

Q: For `CC[C@H](C)[C@@H]([C@@H](CC(=O)N1CCC[C@H]1[C@H](OC)[C@@H](C)C(=O)N[C@@H](Cc1ccccc1)c1nc(CNC(=O)CCC(=O)N2CCN(C(=O)c3ccccc3-c3c4ccc(=[N+](CC)CC)cc-4oc4cc(N(CC)CC)ccc34)CC2)cs1)OC)N(C)C(=O)[C@@H](NC(=O)[C@H](C(C)C)N(C)C)C(C)C` (stereo in doubt), which Drug uptake [28] is on record?
A: The Drug uptake was “Active”.
